Measurements from US6623740B1, “Structurally modified peptides that are resistant to peptidase degradation” (Ludwig Institute for Cancer Research, priority 1997, dated 2003).

Description: At different times, an aliquot measuring about 150 μl was removed and the enzymatic reaction stopped by addition of 15 μl trifluoroacetic acid (TFA). Precipitated serum proteins were pelleted by centrifugation at 15000 rpm for 10 min at 4° C. The supernatants were frozen and preserved at −20° C. until analysis.
The peptide and its degradation product(s) were then separated by reverse phase chromatography (RP-HPLC). Peaks corresponding to the different products were quantified. HPLC analysis of the various peptide samples collected at different incubation times was conducted. As well, peptide degradation kinetics including the half-life of the various peptide samples was recorded together with any increase in the degradation products of the peptide samples under investigation.
The following HPLC conditions were used:
i) column: 5-μm 4.6 mm×25 cm, C18 (Beckman),
ii) gradient: 4-20% CH3CN (0.08% TFA in H2O, 0.08% TFA in CH3CN), 0-30 min,
iii) UV detection: 200-300 nm using a Waters 996 photodiode array detector,
iv) chromatograms obtained at 225 and 280 nm were also derived.

- t ½ of degradation by peptidase present in human serum: ½
Compound: C[C@H](NC(=O)[C@@H](N)CCC(=O)O)C(=O)N[C@@H](CC(=O)O)C(=O)N1CCC[C@H]1C(=O)N[C@H](C(=O)NCC(=O)N[C@@H](Cc1c[nH]cn1)C(=O)N[C@@H](CO)C(=O)N[C@@H](Cc1ccc(O)cc1)C(=O)O)[C@@H](C)O [MZ2-E]
